Assays:
[1] = system: FGFR2; assay: FGFR phosphorylation in KATO III cells (Western blotting, Wes); assay type: cell-based
Protocol: For assessment of the effect of RPT835 inhibitor characterized in this invention with formula II, stomach cancer cells KATO III, which express FGFR2, were used for FRS2 phosphorylation. FGF-2 in concentration of 1 mg/ml and heparin 10 mg/ml were added to the cells for stimulation of FGFR. RPT835 was added in various concentrations. A part of the cells was left without adding the inhibitor, and a part of the cells—without adding either inhibitor, or stimulating agents (control group).
Two standard methods for assessment of the phosphorylation level of FGFR and FRS2: • Western blotting using manual work; • Automatic capillary electrophoresis and immunodetection using automatic system Wes™ (ProteinSimple; SantaClara, Calif.).
Like in Example 1, stomach cancer cells KATO III strongly expressing FGFR2 were used. A part of cells stimulated FGF-2 in concentration 1 mg/ml and heparin 10 mg/ml. The other part of the cells was left without stimulation. Inhibitor RPT835 in dose 1, 10, 100, 1000 nM was added to cells. The control group left without addition of RPT835.
The level of FGFR phosphorylation was assessed using standard Western-blotting and automatic capillary electrophoresis with immune-detection and use of automatic system Wes™ (ProteinSimple; SantaClara, Calif.).

[2] = target: T1, FGFR2-Fc (Homo sapiens, UniProt P21802); assay: Enzyme linked FGF2 binding assay with FGFR2-Fc; details: concentrations of 1 to 1000 nM, FGF-2 + heparin
T1 construct: consisted of human extracellular domain FGFR2α (Inc) and Fc-fragment of human IgG1
Protocol: Non-radioactive enzyme linked FGF2 binding assay was performed in order to assess if RPT835 influences on binding of FGFR2 and ligand (FGF-2). Recombinant chimeric protein FGFR2-Fc, which consisted of human extracellular domain FGFR2α (Inc) and Fc-fragment of human IgG1 was used in the binding assay of FGF-2. FGFR2α contained all the 3 immunoglobulin-like domains and represented domain IIIc FGFR2 with high affinity to FGF-2. A 96-cavity plate tablet was covered with FGFR2-Fc protein, and then the following was added into the cavities:
3) inhibitor RPT835 in various concentrations+FGF-2+heparin
4) a part of the cavities remained without stimulators (FGF-2+heparin) and RPT835 (negative control).
After incubation, enzyme-linked immunoassay was carried out using the corresponding antibodies and subsequent determination of OD650 (optic density with wavelength of 650 nm).

[3] = system: p44/42(MAPK), Akt, mTOR, p70S6; assay: Phosphorylation of intracellular kinases in KATO III cells; assay type: cell-based; details: FGF-2 and heparin
Protocol: In order to access the effect of inhibitor RPT835, characterized in his invention by formula II, on phosphorylation of the listed kinases, stomach cancer cells KATO III, which express FGFR2, was used. FGF-2 in concentration 1 mg/ml and heparin 10 mg/ml was added to the cells for stimulation of FGFR. RPT835 was added in various concentrations. Part of the cells left without addition of the inhibitor, and a part of the cells—without addition of both the inhibitor, and stimulating agents (control groups).
In order to assess the phosphorylation level, 2 standard methods were used: • Western-blotting using manual work. • Automatic capillary electrophoresis and immune-detection using automatic system Wes™ (ProteinSimple; SantaClara, Calif.).

[4] = system: HUVEC; assay: Proliferation of endothelial cells HUVEC with FGF-2; assay type: cell-based; details: Homo sapiens, FGF-2 25 ng/ml, 96 hours, read-out: Cell growth suppression, IC50
Protocol: Endothelial cells HUVEC were sawn in 96-cavity plates and cultivate for 24 hours. After that, the following was added to the cells: • 1) inhibitor RPT835, or • 2) inhibitor described by Formula IX in this invention, or • 3) brivanib—multi-kinase inhibitor of FGFR/VEGFR, and also to all cells—FGF-2 in a concentration of 25 ng/ml.
The cells were cultivated for 96 hours in general and then were calculated.

[5] = system: SKOV3 ovarian cancer cells; assay: Crystal Violet proliferation assay, SKOV3; assay type: cell-based; details: SKOV3, low FGFR2 expression; bFGF 100 ng/ml, 7 days
Source text: (§1) This research used additional cell lines: SKOV3 (ovarian cancer, ATCC # HTB-77), HS578T (breast cancer, ATCC # HTB-126), T47D (breast cancer, ATCC #HTB-1336), modified line of non-small cells lung cancer A549, line of metastatic melanoma of skin Mel Kor (RF Patent No. 2287578), and additional study of antiangiogenic activity—cell line SVEC-4-10 (endothelial cells, ATCC #CRL-2181).
(§2) The cells were cultivated in environment RPMI-1640 (PANECO) (SKOV3, HS578T, T47D, Mel-Kor) or DMEM (PANECO) (SVEC-4-10) containing 10% of embryonal serum cattle (FCS, HyClone), 2 mM glutamine (PANECO), antibiotics (100 IU/mL penicillin and […] streptomycin (all PANECO)) at 37° C. and 5% CO2. Cells at 70-80% monolayer were used for the experiments.
(§3) The cells were planted in low density (30 t of cells/ml) in triplets on a 96-cavity plate in an environment containing 0.1% of FCS serum. […] Growth of cells was determined by the modified “Crystal Violet mitogenic method” for 7 days after the experiment start. […] The dye was dissolved in ethanol and measured on a spectrophotometer at 540-560 nm. The curve of cell proliferative activity inhibition was built by the dependence of the percent of the cell quantity (Y axis) on concentration of inhibitor RPT835 in the cavity of the plate (X axis). […]

[6] = system: Mel Kor metastatic melanoma cells; assay: Crystal Violet proliferation assay, Mel Kor; assay type: cell-based; details: hardly expressed FGFR2, bFGF 100 ng/ml, 7 days
Source text: as §1, §2, §3

[7] = system: T47D breast cancer cells; assay: Crystal Violet proliferation assay, T47D; assay type: cell-based; details: hardly expressed FGFR2, bFGF 100 ng/ml, 7 days
Source text: as §1, §2, §3

[8] = Acute toxicity; assay type: in vivo; details: acute administration
Source text: Besides, acute toxicity of inhibitor RPT835 was studied in the following volume in a separate research: • Acute toxicity of the medicine was researched. […] The state of the animals after acute administration testifies of good tolerability of the medicine in doses exceeding the maximal therapeutic ones (about 4.3 mcg/kg) tens—hundreds of times.

[9] = reaction of immune complexes, general anaphylaxis, degranulation of mast cells, conjuctival test

T1 sequence (P21802 22-377 limits assumed): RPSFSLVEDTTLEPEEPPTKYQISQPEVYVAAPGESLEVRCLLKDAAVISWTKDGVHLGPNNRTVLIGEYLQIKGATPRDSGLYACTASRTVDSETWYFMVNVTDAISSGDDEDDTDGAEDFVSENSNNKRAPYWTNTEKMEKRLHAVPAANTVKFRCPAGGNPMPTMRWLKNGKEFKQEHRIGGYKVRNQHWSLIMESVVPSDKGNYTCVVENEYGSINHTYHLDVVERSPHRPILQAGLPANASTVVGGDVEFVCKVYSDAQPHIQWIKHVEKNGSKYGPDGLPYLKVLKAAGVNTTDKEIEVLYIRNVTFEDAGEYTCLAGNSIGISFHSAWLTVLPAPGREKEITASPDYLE

Q: For Cc1cc([N+](=O)[O-])c(NS(=O)(=O)c2cccc(C(=O)O)c2)cc1-c1cccnc1 [RPT835, 3-(N-(4-methyl-2-nitro-5-(pyridin-3-yl)phenyl)sulfamoyl)benzoic acid], which “phosphorylation of FGFR2 stimulated by FGF-2 (tyrosine kinase activity)” value ([1]; KATO III cells, 1, 10, 100, 1000 nM) is on record?
A: did not have any effect

Q: And the “phosphorylation of general FGFR” value ([1]; KATO III cells, with and without FGF-2 stimulation)?
A: without influence on phosphorylation of general FGFR

Q: And the “binding of FGF-2 and FGFR2-Fc” value [2]?
A: did not influence on binding of ligand with the receptor

Q: And the “activity (phosphorylation) of p44/42(MAPK), Akt, mTOR, p70S6 compared to cells stimulated only with FGF-2” value [3]?
A: did not change

Q: What about the IC50 [4] of the same compound?
A: 11 nM

Q: What about the “inhibition of proliferative activity” value [5] of the same compound?
A: moderate effect

Q: And the “inhibition of proliferative activity” value [6]?
A: did not block

Q: And the “inhibition of proliferative activity” value [7]?
A: did not block

Q: And the “toxicity class (Hodge; Sidorov)” value ([8]; 14 days observation, necropsy)?
A: IV class of low toxicity

Q: And the LD50 at 14 days ([8]; in vivo, read-out: Median lethal dose (LD50))?
A: > 2000 mg/kg

Q: What about the allergic properties [9] of the same compound?
A: does not show any allergic properties

From US9957236B2, “Selective inhibitors interfering with fibroblast growth factor receptor and FRS2 interaction for the prevention and treatment of cancer and other diseases” (LIMITED LIABILITY COMPANY “RUSSIAN PHARMACEUTICAL …, priority 2014, dated 2018)
